Experimental data: patent US8637237B2, “Methods, compositions, and systems for the identification of species-specific or developmental stage-specific insecticides” (The University of North Carolina at Greensboro, priority 2003, dated 2014)

Assays:
FXR and USP = target: T1, FXR and USP (Rattus norvegicus, UniProt Q62735); experiment: FXR with USP, reporter in CHO cells; type: cell-based
T1 construct: expressed in transfected cells; host or cells: CHO
T1 sequence (Q62735 1-469): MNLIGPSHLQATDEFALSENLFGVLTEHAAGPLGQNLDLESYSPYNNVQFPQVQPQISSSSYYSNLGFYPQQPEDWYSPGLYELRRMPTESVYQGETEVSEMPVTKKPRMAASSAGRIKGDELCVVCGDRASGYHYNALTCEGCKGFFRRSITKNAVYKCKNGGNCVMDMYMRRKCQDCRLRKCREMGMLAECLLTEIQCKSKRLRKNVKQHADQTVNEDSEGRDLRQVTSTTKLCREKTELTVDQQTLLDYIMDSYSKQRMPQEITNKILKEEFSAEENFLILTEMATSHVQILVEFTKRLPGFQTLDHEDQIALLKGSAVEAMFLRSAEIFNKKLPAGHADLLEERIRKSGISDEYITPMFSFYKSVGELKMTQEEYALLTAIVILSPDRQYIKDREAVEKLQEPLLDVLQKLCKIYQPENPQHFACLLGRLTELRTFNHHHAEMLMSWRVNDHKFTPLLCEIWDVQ
Experimental: These experiments employed a mammalian cell culture system using Chinese hamster ovary cells (CHO) to evaluate the transcriptional function of Drosophila melanogaster EcR and USP using methods described previously (U.S. Patent Application Publication No: 2005/0049230; Henrich et al, 2003). Cells were seeded in 6-well polypropylene culture plates (Falcon) with 10^5 cells per well on the day prior to transfection. Transfection was subsequently performed using either calcium phosphate (Kitareewan et al., 1996, Mol. Biol. Cell, 7:1153-1196) or a GenePorter reagent (Gene Therapy Systems, Inc; San Diego, Calif.) following manufacturer's protocols. Each well received 1.25 μg of (EcRE)5-ΔMTV-CAT (five copies of the hsp27 EcRE inserted into an mouse mammary tumor virus (MTV) promoter upstream of the chloramphenicol acetyltransferase (CAT) gene) or (EcRE)5-ΔMTV-LUC (the same promoter attached to firefly luciferase), 1.25 μg of pCH111 (SV40 early promoter linked to the β-galactosidase gene) to normalize CAT activity, and 0.25 μg of each expression plasmid (EcR, FXR, RXR, USP) that was tested. The cells were incubated with plasmid DNA for seven hours and then washed with 1×PBS. Muristerone A (murA; Alexis Biochemicals) or 20-hydroxyecdysone (20E; Sigma) dissolved in ethanol to a concentration of 10 mM was diluted as necessary to the final assay concentration (FAC) in 2 ml of fresh incubation medium that was then applied to the cells. Similarly, JHIII (Sigma) was dissolved in dimethyl sulfoxide (DMSO) to a concentration of 80 μM and diluted into the incubation medium to its final assay concentration (20, 40, 80, 160 μM). […] A corresponding volume of ethanol and DMSO were added to control cells for all experiments. For all experiments, the cells were allowed to incubate with the medium for 24 hours before collection and cell lysates were prepared by described methods (Kitareewan et al., 1996). Both β-galactosidase and CAT reporter activity were measured based on previously used methods (Kitareewan et al, 1996). […]

EcRB1/USP = target: T2, EcRB1/USP (Drosophila melanogaster, UniProt P34021); experiment: EcRB1 isoform with USP (VP16CfUSP), (EcRE)5-ΔMTV-LUC in CHO cells; type: cell-based
T2 construct: The plasmid encodes a version of EcRB1 that includes 878 amino acids, and deletes the F domain; expressed in transfected cells; host or cells: CHO
T2 sequence (P34021 1-878): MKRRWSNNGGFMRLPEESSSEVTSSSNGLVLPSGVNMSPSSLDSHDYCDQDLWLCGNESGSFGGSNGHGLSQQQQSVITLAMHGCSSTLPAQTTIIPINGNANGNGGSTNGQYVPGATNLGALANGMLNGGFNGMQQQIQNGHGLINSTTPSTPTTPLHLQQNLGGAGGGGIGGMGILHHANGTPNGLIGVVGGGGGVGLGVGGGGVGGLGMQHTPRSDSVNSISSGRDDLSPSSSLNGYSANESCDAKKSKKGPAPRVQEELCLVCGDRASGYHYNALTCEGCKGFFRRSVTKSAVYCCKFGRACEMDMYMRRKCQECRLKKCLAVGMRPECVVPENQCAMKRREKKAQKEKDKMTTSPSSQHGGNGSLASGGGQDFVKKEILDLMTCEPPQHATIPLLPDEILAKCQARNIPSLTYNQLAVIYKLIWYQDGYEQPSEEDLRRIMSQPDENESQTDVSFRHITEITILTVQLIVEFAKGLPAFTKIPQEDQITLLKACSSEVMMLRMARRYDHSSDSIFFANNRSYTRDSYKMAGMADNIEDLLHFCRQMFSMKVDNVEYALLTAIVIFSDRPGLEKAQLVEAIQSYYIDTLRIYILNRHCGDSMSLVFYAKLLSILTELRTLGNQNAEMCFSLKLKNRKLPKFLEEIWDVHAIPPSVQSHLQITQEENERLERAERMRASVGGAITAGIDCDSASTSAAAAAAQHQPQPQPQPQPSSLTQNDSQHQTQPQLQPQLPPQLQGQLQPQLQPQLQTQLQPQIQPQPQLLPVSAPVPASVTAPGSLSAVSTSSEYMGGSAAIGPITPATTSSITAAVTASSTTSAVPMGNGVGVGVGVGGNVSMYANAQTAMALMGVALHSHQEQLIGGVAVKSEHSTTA
T2 sequence (O76202 192-472 partner): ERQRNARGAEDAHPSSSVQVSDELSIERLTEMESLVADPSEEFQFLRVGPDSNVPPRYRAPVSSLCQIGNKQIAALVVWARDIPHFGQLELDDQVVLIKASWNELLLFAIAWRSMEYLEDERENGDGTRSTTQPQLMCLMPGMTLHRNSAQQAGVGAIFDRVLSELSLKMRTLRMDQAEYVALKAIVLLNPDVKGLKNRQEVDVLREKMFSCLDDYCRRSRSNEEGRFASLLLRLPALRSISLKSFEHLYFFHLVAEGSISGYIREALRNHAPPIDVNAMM
Experimental: These experiments employed a mammalian cell culture system using Chinese hamster ovary cells (CHO) to evaluate the transcriptional function of Drosophila melanogaster EcR and USP using methods described previously (U.S. Patent Application Publication No: 2005/0049230; Henrich et al, 2003). Cells were seeded in 6-well polypropylene culture plates (Falcon) with 10^5 cells per well on the day prior to transfection. Transfection was subsequently performed using either calcium phosphate (Kitareewan et al., 1996, Mol. Biol. Cell, 7:1153-1196) or a GenePorter reagent (Gene Therapy Systems, Inc; San Diego, Calif.) following manufacturer's protocols. Each well received 1.25 μg of (EcRE)5-ΔMTV-CAT (five copies of the hsp27 EcRE inserted into an mouse mammary tumor virus (MTV) promoter upstream of the chloramphenicol acetyltransferase (CAT) gene) or (EcRE)5-ΔMTV-LUC (the same promoter attached to firefly luciferase), 1.25 μg of pCH111 (SV40 early promoter linked to the β-galactosidase gene) to normalize CAT activity, and 0.25 μg of each expression plasmid (EcR, FXR, RXR, USP) that was tested. The cells were incubated with plasmid DNA for seven hours and then washed with 1×PBS. Muristerone A (murA; Alexis Biochemicals) or 20-hydroxyecdysone (20E; Sigma) dissolved in ethanol to a concentration of 10 mM was diluted as necessary to the final assay concentration (FAC) in 2 ml of fresh incubation medium that was then applied to the cells. Similarly, JHIII (Sigma) was dissolved in dimethyl sulfoxide (DMSO) to a concentration of […] and diluted into the incubation medium to its final assay concentration (20, 40, 80, 160 μM). […] A corresponding volume of ethanol and DMSO were added to control cells for all experiments. For all experiments, the cells were allowed to incubate with the medium for 24 hours before collection and cell lysates were prepared by described methods (Kitareewan et al., 1996). Both β-galactosidase and CAT reporter activity were measured based on previously used methods (Kitareewan et al, 1996). Luciferase assays using luciferrin followed the specifications of the manufacturer.
Transcriptional activity, measured as ^14C-chloramphenicol counts (for measuring CAT activity) or relative luciferase activity (RLU) was quantified for each cell lysate. The counts were then normalized by adjusting for differences in β-galactosidase activity, since β-galactosidase expression is controlled by a constitutive promoter and provides an estimate of cell mass. Data were normalized as fold-induction based on differences in reporter gene activity between hormonally treated and control cells.

Row | SMILES | elevation of FXR-mediated activity by ecdysteroid added with JHIII (FXR and USP) | induction by murA (EcRB1/USP; EcRB1 + VP16CfUSP, 1 μM murA) | MurA (inducibility) (EcRB1/USP; EcRB1/USP, 0.1 μM murA) | transcriptional response to 20E (EcRB1/USP; EcRB1 + VP16CfUSP, 10 μM 20E) | 20E (inducibility) (EcRB1/USP; EcRB1/USP, 10 μM 20E) | response of FXR and USP to JHIII (FXR and USP; CHO cells) | potentiation of murA response by JHIII (EcRB1/USP; EcRB1 + VP16CfUSP, 80 μM JHIII with 0.1 μM murA) | MurA + JHIII (JHIII potentiation) (EcRB1/USP; EcRB1/USP, 0.1 μM murA + 80 μM JHIII)
1 | CC(C)CC[C@@H](O)[C@](C)(O)[C@H]1CC[C@@]2(O)C3=CC(=O)[C@]4(O)C[C@@H](O)[C@@H](O)C[C@]4(C)[C@H]3[C@H](O)C[C@]12C [murA, muristerone A] | no elevation | 30-40 fold | + ((+) designates a change in transcriptional level that exceeds 2.5-fold) |  |  |  |  | 
2 | CC(C)(O)CC[C@@H](O)[C@](C)(O)[C@H]1CC[C@@]2(O)C3=CC(=O)[C@@H]4C[C@@H](O)[C@@H](O)C[C@]4(C)[C@H]3CC[C@]12C [20E, 20-hydroxyecdysone] | no elevation |  |  | consistent and discernible transcriptional response | + ((+) designates a change in transcriptional level that exceeds 2.5-fold) |  |  | 
3 | COC(=O)/C=C(\C)CC/C=C(\C)CC[C@H]1OC1(C)C [JHIII, juvenile hormone III] |  |  |  |  |  | low level response | potentiated | + ((+) indicates observed potentiation that exceeds 2-fold above the levels observed with ecdysteroid alone)
